Laboratory results published in EP0409227A2, “Pyrimidine nucleosides, their preparation and pharmaceutical preparations” (MATTHES, Eckart, Dr., priority 1989, dated 1991).
pIC50: −log10 of the molar value.

Experiments:
Hep G2 (2.2.15)-Zellen = test: DNA synthesis of Hep G2 (2.2.15) cells (acid-insoluble radioactivity after 3H-thymidine or 3H-deoxyadenosine); format: cell-based, menschlichen; conditions: 4 days, then 24 h label, mean ± SD of five experiments
Protocol: (§1) Die Testung der antiviralen Wirksamkeit der Nucleoside auf zelluärer Ebene erfolgte an einer menschlichen Hepatoblastom-Zellinie, die mit dem HBV-Genom tranfiziert wurde und sowohl das Oberflächenantigen des Virus (HBsAg) als auch die HBV-DNA permanent produziert und infektiöse Viruspartikel in das Medium abgibt (Hep G2-Zellen, Klon 2.2.15, Sells et al. Proc.Natl.Acad. Sci. 84, 1005 (1987)). Die Zellen (5x10⁵/ml) wurden in RPMI 1640-Medium mit 2 mM Glutamin und 10% fetalem Kälberserum allein oder zusammen mit den Nucleosid-Analoga für 4 Tage inkubiert, danach wurden den Ansätzen für 24 Stunden ³H-Thymidin bzw. ³H-Desoxyadenosin (3 µCi/ml) zugesetzt, die Zellen abzentrifugiert und darin die säureunlösliche Radioaktivität und damit der Einfluß auf die DNA-Synthese bestimmt. Im Inkubationsmedium wurde das HBsAg durch Festphasenradioimmunoassay (Travenol-Genentech Diagnostics, Cambridge, MA) entsprechend den Instruktionen des Herstellers ermittelt. Die Tabelle 4 faßt die Ergebnisse zusammen, die belegen, daß die getesteten Verbindungen hochwirksame und selektive Hemmstoffe der HBV-Vermehrung sind.

MT4 Zellen = test: Cytotoxicity: inhibition of proliferation of MT4 cells; format: cell-based
Protocol: (§2) Unter dem Aspekt einer möglichen Anwendung der Verbindungen am Menschen wurden ihre antiproliferativen Wirkungen an menschlichen Zellkulturen wie früher beschrieben getestet (E. Matthes et al. Biochem.Biophys.Res.Commun. 153, 825 (1988)). Dabei zeigte sich, daß z.B. 2′,3′-Didesoxy-3-fluor-5-methylcytidin gegenüber der T-Zellinie MT4 eine CD₅₀ von 190 µM aufweist. In einem weiteren Test, in dem eine mögliche Wachstumshemmung koloniebildender Zellen des Knochenmarks der Maus (CFU-GM) untersucht wurde (E. Matthes et al. Biochem.Biophys.Res.Commun. 165, 488 (1989), erwies sich diese Verbindung ebenfalls als kaum proliferationshemmend (CD₅₀ > 500 µM). Die Wirkung weiterer Verbindungen auf die Proliferation von MT4-Zellen ist in Tabelle 3 zusammengefaßt. Tabelle 3

[1] = system: HBsAg-Sekretion von Hep G2 (2.2.15)-Zellen; test: Inhibition of HBsAg secretion of Hep G2 (2.2.15) cells (solid-phase radioimmunoassay of the medium); format: cell-based, HBV
Protocol: as §1

HBV-Polymerase = biological target: T1, HBV-Polymerase (Hepatitis B virus genotype D subtype ayw, UniProt P03156); test: Inhibition of HBV polymerase activity by nucleoside triphosphate analogues (method of Kaplan et al.); format: biochemical; conditions: 50 % inhibition of HBV polymerase activity; 3 h incubation at 37 °C; read-out: ID₅₀
T1 construct: Es wurde zunächst die Hemmbarkeit der HBV-assoziierten Polymerase; host or cells: virus-associated endogenous polymerase
Source text: Das Hepatitis B Virus (HBV) besitzt eine zirkuläre, partiell doppelsträngige DNA, welche nach Infektion einer Leberzelle durch eine viruseigene Polymerase repliziert wird. Dieser Vorgang setzt jedoch die Synthese einer RNA durch eine zelluläre RNA-Polymerase voraus. Nur diese RNA-Matrize - im Zusammenhang mit der Replikation auch als Prägenom bezeichnet - kann von der HBV-Polymerase für die Synthese zunächst eines RNA-DNA Hybrids und dann der doppelsträngigen DNA benutzt werden. Damit verfügt die HBV-Polymerase über eine enzymatische Aktivität, die der einer reversen Transcriptase ähnelt (Will et al., J.Virology 61, 904 (1987)). Es wurde zunächst die Hemmbarkeit der HBV-assoziierten Polymerase durch die 5′-Triphosphate der erfindungsgemäßen Verbindungen untersucht. Dazu wurde die von Kaplan et al. (J.Virology 12, 995 (1973)) angegebene Methode zur Bestimmung der HBV-Polymerase benutzt, wobei die zu testenden Triphosphate den Ansätzen in verschiedenen Konzentrationen zugesetzt wurden. Die Hemmung der Enzymreaktion wurde nach 3-stündiger Inkubation bei 37 °C durch Vergleich mit einem Kontrollwert ermittelt und daraus die Konzentration der zugesetzten Analoga bestimmt, die zu einer 50 %igen Hemmung der HBV-Polymerase-Aktivität führt (ID₅₀). Tabelle 1 zeigt die Ergebnisse, wobei insbesondere 2′,3′-Didesoxy-3′-fluor-5-methylcytidin durch einen Wert ID₅₀ von 0,03 µM herausragt und damit zu den stärksten bisher bekannten Hemmstoffen der HBV-Polymerase zu rechnen ist. Tabelle 1

[2] = system: koloniebildender Zellen des Knochenmarks der Maus (CFU-GM); test: Growth inhibition of colony-forming bone marrow cells (CFU-GM); format: cell-based; conditions: mouse bone marrow
Protocol: as §2

[3] = nucleoside 0,01 µM, 4 days + 24 h, mean ± SD of five experiments
[4] = nucleoside 0,1 µM, 4 days + 24 h, mean ± SD of five experiments
[5] = nucleoside 0,01 µM, % of control without nucleoside (100)
[6] = nucleoside 0,1 µM, % of control without nucleoside (100)
[7] = nucleoside 0,03 µM, 4 days + 24 h, mean ± SD of five experiments
[8] = nucleoside 0,3 µM, 4 days + 24 h, mean ± SD of five experiments
[9] = nucleoside 0,03 µM, % of control without nucleoside (100)
[10] = nucleoside 0,3 µM, % of control without nucleoside (100)
[11] = nucleoside 0,003 µM, 4 days + 24 h, mean ± SD of five experiments
[12] = nucleoside 0,003 µM, % of control without nucleoside (100)
[13] = nucleoside 1,0 µM, 4 days + 24 h, mean ± SD of five experiments
[14] = nucleoside 1,0 µM, % of control without nucleoside (100)
[15] = nucleoside 3,0 µM, 4 days + 24 h, mean ± SD of five experiments
[16] = nucleoside 3,0 µM, % of control without nucleoside (100)
[17] = MT4 cells, 50 % inhibition of cell multiplication after 48 h

T1 sequence (P03156 whole entry): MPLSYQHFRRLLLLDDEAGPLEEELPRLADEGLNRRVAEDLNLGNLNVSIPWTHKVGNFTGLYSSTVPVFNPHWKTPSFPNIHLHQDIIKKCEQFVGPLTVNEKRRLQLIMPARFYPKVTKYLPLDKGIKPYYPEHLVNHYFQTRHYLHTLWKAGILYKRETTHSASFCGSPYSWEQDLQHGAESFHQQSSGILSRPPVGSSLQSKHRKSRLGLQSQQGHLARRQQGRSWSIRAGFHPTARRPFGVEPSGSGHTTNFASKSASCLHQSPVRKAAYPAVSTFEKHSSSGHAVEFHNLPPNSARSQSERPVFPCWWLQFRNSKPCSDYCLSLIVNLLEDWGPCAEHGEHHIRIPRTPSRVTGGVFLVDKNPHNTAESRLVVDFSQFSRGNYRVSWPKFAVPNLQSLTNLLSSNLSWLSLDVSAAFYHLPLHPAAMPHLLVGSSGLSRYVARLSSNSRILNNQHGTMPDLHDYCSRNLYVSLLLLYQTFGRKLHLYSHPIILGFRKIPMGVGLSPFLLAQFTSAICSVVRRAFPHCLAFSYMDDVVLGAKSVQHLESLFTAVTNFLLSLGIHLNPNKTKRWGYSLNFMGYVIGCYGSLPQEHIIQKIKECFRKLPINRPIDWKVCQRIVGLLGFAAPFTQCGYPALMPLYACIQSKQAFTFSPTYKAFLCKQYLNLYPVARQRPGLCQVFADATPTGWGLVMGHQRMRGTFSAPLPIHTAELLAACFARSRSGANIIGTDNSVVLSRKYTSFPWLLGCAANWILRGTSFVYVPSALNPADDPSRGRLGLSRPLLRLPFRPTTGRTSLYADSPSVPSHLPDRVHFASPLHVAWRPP

For `Nc1ncnc2c1ncn2[C@H]1C=C[C@@H](CO)O1` [2′,3′-Didehydro-2′,3′-didesoxyadenosin, 9-(2,3-Didesoxy-β-D-glycero-pent-2-enofuranosyl)adenin], the “^3H-DNA” value (Hep G2 (2.2.15)-Zellen; nucleoside 0,01 µM) was 17215 ± 1760 dpm/Kultur, the “^3H-DNA” value (Hep G2 (2.2.15)-Zellen; nucleoside 0,1 µM) was 16230 ± 1745 dpm/Kultur and the “^3H-DNA” value (Hep G2 (2.2.15)-Zellen; nucleoside 0,03 µM) was 18975 ± 1957 dpm/Kultur. The “^3H-DNA” value (Hep G2 (2.2.15)-Zellen; nucleoside 0,3 µM) was 19400 ± 1926 dpm/Kultur, the “^3H-DNA” value (Hep G2 (2.2.15)-Zellen; nucleoside 0,003 µM) was 19650 ± 1935 dpm/Kultur and the “^3H-DNA” value (Hep G2 (2.2.15)-Zellen; nucleoside 1,0 µM) was 9930 ± 1130 dpm/Kultur. The “^3H-DNA” value (Hep G2 (2.2.15)-Zellen; nucleoside 3,0 µM) was 4265 ± 555 dpm/Kultur, the CD₅₀ (MT4 Zellen; human, 48 h) was 48 µM and the HBsAg [1, 3] was 12,4 ± 1,8 ng/ml. The HBsAg [1, 4] was 0,5 ± 0,2 ng/ml, the HBsAg [1, 5] was 71% and the HBsAg [1, 6] was 3%. The HBsAg [1, 7] was 4,7 ± 0,6 ng/ml, the HBsAg [1, 8] was < 0,1 ng/ml and the HBsAg [1, 9] was 27%. The HBsAg [1, 10] was under 1%, the HBsAg [1, 11] was 16,9 ± 2,6 ng/ml and the HBsAg [1, 12] was 96%. For the same compound, the HBsAg [1, 13] was < 0,1 ng/ml, the HBsAg [1, 14] was under 1% and the HBsAg [1, 15] was < 0,1 ng/ml. It also gave an HBsAg [1, 16] of under 1%.

In the case of `Cc1cn([C@H]2C[C@H](N)[C@@H](CO)O2)c(=O)nc1N` [2′,3′-Didesoxy-3′-amino-5-methylcytidin], the “^3H-DNA” value (Hep G2 (2.2.15)-Zellen; nucleoside 0,01 µM) was 15445 ± 1830 dpm/Kultur, the “^3H-DNA” value (Hep G2 (2.2.15)-Zellen; nucleoside 0,1 µM) was 14350 ± 1570 dpm/Kultur and the “^3H-DNA” value (Hep G2 (2.2.15)-Zellen; nucleoside 0,03 µM) was 14180 ± 1650 dpm/Kultur. The “^3H-DNA” value (Hep G2 (2.2.15)-Zellen; nucleoside 0,3 µM) was 12160 ± 1860 dpm/Kultur, the “^3H-DNA” value (Hep G2 (2.2.15)-Zellen; nucleoside 0,003 µM) was 16020 ± 1790 dpm/Kultur and the “^3H-DNA” value (Hep G2 (2.2.15)-Zellen; nucleoside 1,0 µM) was 8150 ± 1125 dpm/Kultur. The “^3H-DNA” value (Hep G2 (2.2.15)-Zellen; nucleoside 3,0 µM) was 2100 ± 430 dpm/Kultur, the CD₅₀ (MT4 Zellen; human, 48 h) was 1,2 µM and the HBsAg [1, 3] was 8,5 ± 1,3 ng/ml. The HBsAg [1, 4] was 4,8 ± 0,6 ng/ml, the HBsAg [1, 5] was 44% and the HBsAg [1, 6] was 25%. For the same compound, the HBsAg [1, 7] was 7,0 ± 1,1 ng/ml, the HBsAg [1, 8] was 3,2 ± 0,4 ng/ml and the HBsAg [1, 9] was 36%. For the same compound, the HBsAg [1, 10] was 17%, the HBsAg [1, 11] was 13,9 ± 2,9 ng/ml and the HBsAg [1, 12] was 72%. The HBsAg [1, 13] was 0,3 ± 0,1 ng/ml, the HBsAg [1, 14] was 2% and the HBsAg [1, 15] was < 0,1 ng/ml. The HBsAg [1, 16] was under 1%.

For `Cc1cn([C@H]2C[C@H](F)[C@@H](CO)O2)c(=O)nc1N` [2′,3′-Didesoxy-3′-fluor-5-methylcytidin], the “^3H-DNA” value (Hep G2 (2.2.15)-Zellen; nucleoside 0,01 µM) was 15060 ± 1895 dpm/Kultur, the “^3H-DNA” value (Hep G2 (2.2.15)-Zellen; nucleoside 0,1 µM) was 14350 ± 1520 dpm/Kultur and the “^3H-DNA” value (Hep G2 (2.2.15)-Zellen; nucleoside 0,03 µM) was 15580 ± 1910 dpm/Kultur. For the same compound, the “^3H-DNA” value (Hep G2 (2.2.15)-Zellen; nucleoside 0,3 µM) was 13175 ± 1975 dpm/Kultur, the “^3H-DNA” value (Hep G2 (2.2.15)-Zellen; nucleoside 0,003 µM) was 13270 ± 1650 dpm/Kultur and the “^3H-DNA” value (Hep G2 (2.2.15)-Zellen; nucleoside 1,0 µM) was 8295 ± 1010 dpm/Kultur. The “^3H-DNA” value (Hep G2 (2.2.15)-Zellen; nucleoside 3,0 µM) was 2470 ± 295 dpm/Kultur, the pIC50 (HBV-Polymerase) was 7.52 and the CD₅₀ (MT4 Zellen; [17]) was 190 µM. The CD₅₀ [2] was over 500 µM, the HBsAg [1, 3] was 7,0 ± 0,9 ng/ml and the HBsAg [1, 4] was 0,4 ± 0,1 ng/ml. The HBsAg [1, 5] was 36%, the HBsAg [1, 6] was 2% and the HBsAg [1, 7] was 2,4 ± 0,3 ng/ml. For the same compound, the HBsAg [1, 8] was < 0,1 ng/ml, the HBsAg [1, 9] was 12% and the HBsAg [1, 10] was under 1%. For the same compound, the HBsAg [1, 11] was 14,3 ± 2,4 ng/ml, the HBsAg [1, 12] was 74% and the HBsAg [1, 13] was < 0,1 ng/ml. The HBsAg [1, 14] was under 1%, the HBsAg [1, 15] was < 0,1 ng/ml and the HBsAg [1, 16] was under 1%.

`Cc1cn([C@H]2C[C@H](Cl)[C@@H](CO)O2)c(=O)nc1N` [2′,3′-Didesoxy-3′chlor-5-methylcytidin, 3′-Chlor-2′,3′-didesoxy-5-methylcytidin] was tested, and the “^3H-DNA” value (Hep G2 (2.2.15)-Zellen; nucleoside 0,01 µM) was 14820 ± 1550 dpm/Kultur, the “^3H-DNA” value (Hep G2 (2.2.15)-Zellen; nucleoside 0,1 µM) was 15185 ± 1735 dpm/Kultur and the “^3H-DNA” value (Hep G2 (2.2.15)-Zellen; nucleoside 0,03 µM) was 14370 ± 1620 dpm/Kultur. The “^3H-DNA” value (Hep G2 (2.2.15)-Zellen; nucleoside 0,3 µM) was 13895 ± 1540 dpm/Kultur, the “^3H-DNA” value (Hep G2 (2.2.15)-Zellen; nucleoside 0,003 µM) was 13450 ± 1465 dpm/Kultur and the “^3H-DNA” value (Hep G2 (2.2.15)-Zellen; nucleoside 1,0 µM) was 12270 ± 1590 dpm/Kultur. The “^3H-DNA” value (Hep G2 (2.2.15)-Zellen; nucleoside 3,0 µM) was 10065 ± 1855 dpm/Kultur, the CD₅₀ (MT4 Zellen; [17]) was 625 µM and the HBsAg [1, 3] was 9,6 ± 1,2 ng/ml. The HBsAg [1, 4] was 3,4 ± 0,4 ng/ml, the HBsAg [1, 5] was 50% and the HBsAg [1, 6] was 18%. For the same compound, the HBsAg [1, 7] was 7,1 ± 0,8 ng/ml, the HBsAg [1, 8] was 3,2 ± 0,5 ng/ml and the HBsAg [1, 9] was 37%. The HBsAg [1, 10] was 17%, the HBsAg [1, 11] was 18,5 ± 2,6 ng/ml and the HBsAg [1, 12] was 96%. For the same compound, the HBsAg [1, 13] was 0,4 ± 0,1 ng/ml, the HBsAg [1, 14] was 2% and the HBsAg [1, 15] was < 0,1 ng/ml. The HBsAg [1, 16] was under 1%.
